Laboratory results reported in US12227482B2, “Compounds and compositions for the treatment of cancer” (The Regents of the University of California, priority 2016, dated 2025).

How the values were obtained:
Assay type in all cases: cell-based
[1] = tested on: A549 cells; test: Cell viability (CellTiter-Glo ATP content) in A549 cells; conditions: Homo sapiens, A549, 72 h, 72 hours treatment, cell survival by CellTiter-Glo, 2% fetal bovine serum
Description: (§1) Logarithmically growing A549, LOX and MelJuSo cells (ATCC) were plated in antibiotic-free RPMI medium (Coming) supplemented with 2% fetal bovine serum (Gemini Bio-products) at a density of 5,000 cells per well in clear-bottom 96-well plates. The next day cells were treated (triplicates) with increasing doses of a compound of the present disclosure (dissolved in DMSO) and DMSO vehicle controls (final DMSO concentration of 0.5%) for 72 hours and subsequently assessed for cell viability by measuring ATP content with CellTiter-Glo Luminescent Cell Viability Assay (Promega). Signal intensity was measured on a Glomax™ 96 Microplate Luminometer (Promega) and percent cell survival was calculated based on the reading of vehicle control cells set as 100%.

[2] = tested on: LOX cells; test: Cell viability (CellTiter-Glo ATP content) in LOX cells; conditions: LOX, 72 h, 72 hours treatment, cell survival by CellTiter-Glo, 2% fetal bovine serum
Description: as §1

[3] = tested on: MelJuSo cells; test: Cell viability (CellTiter-Glo ATP content) in MelJuSo cells; conditions: Homo sapiens, MEL-JUSO, 72 hours treatment, cell survival by CellTiter-Glo, 2% fetal bovine serum
Description: as §1

Compound	IC50 [1]	IC50 [2]	IC50 [3]
CCCCC1(C)C(c2ccc(F)cc2)=NN(c2ccc(F)cc2F)C1(C)C(=O)NCCCC(C)(C)CO (stereo not drawn) [Compound 87, 4-butyl-1-(2,4-difluorophenyl)-3-(4-fluorophenyl)-N-(5-hydroxy-4,4-dimethylpentyl)-4,5-dimethyl-4,5-dihydro-1H-pyrazole-5-carboxamide]	> 2 µM	> 2 µM	> 2 µM
CCCCC1C(c2ccc(F)cc2)=NN(c2ccccc2)C1(C)C(=O)N(C)Cc1cc(OC)cc(OC)c1 (stereo not drawn) [Compound 52, 4-butyl-N-(3,5-dimethoxybenzyl)-3-(4-fluorophenyl)-N,5-dimethyl-1-phenyl-4,5-dihydro-1H-pyrazole-5-carboxamide]	> 2 µM	> 2 µM	> 2 µM
CC(C)(CO)CCCNC(=O)C1(C)C(c2ccoc2)C(c2ccc(F)cc2F)=NN1c1ccc(F)cc1F (stereo not drawn) [Compound 129, 1,3-bis(2,4-difluorophenyl)-4-(furan-3-yl)-N-(5-hydroxy-4,4-dimethylpentyl)-5-methyl-4,5-dihydro-1H-pyrazole-5-carboxamide]	0.5 to 1 µM	0.5 to 1 µM	0.25 to 0.5 µM
CCCCC1C(c2ccc(F)cc2)=NN(c2ccccc2)C1(C)C(=O)NCC1CCCCO1 (stereo not drawn) [Compound 68, 4-butyl-3-(4-fluorophenyl)-5-methyl-1-phenyl-N-((tetrahydro-2H-pyran-2-yl)methyl)-4,5-dihydro-1H-pyrazole-5-carboxamide]	> 2 µM	1 to 2 µM	0.5 to 1 µM
CCCCC1C(c2ccc(F)cc2)=NN(c2ccc(Cl)cc2F)C1(C)C(=O)NCCCC(C)(C)CO (stereo not drawn) [Compound 23, 4-butyl-1-(4-chloro-2-fluorophenyl)-3-(4-fluorophenyl)-N-(5-hydroxy-4,4-dimethylpentyl)-5-methyl-4,5-dihydro-1H-pyrazole-5-carboxamide]	0.5 to 1 µM	0.5 to 1 µM	0.25 to 0.5 µM
CC1(C(=O)NCCNC(=O)CCCCC2SC[C@@H]3NC(=O)N[C@H]23)C(c2cccs2)C(c2ccc(F)cc2)=NN1c1ccc(F)cc1F (stereo partly drawn) [Compound 125, 1-(2,4-difluorophenyl)-3-(4-fluorophenyl)-5-methyl-N-(2-(5-((3aS,6aR)-2-oxohexahydro-1H-thieno[3,4-d]imidazol-4-yl)pentanamido)ethyl)-4-(thiophen-2-yl)-4,5-dihydro-1H-pyrazole-5-carboxamide]	> 2 µM	> 2 µM	> 2 µM
COC(=O)[C@H](C)NC(=O)C1(C)C(c2ccoc2)C(c2ccc(F)cc2F)=NN1c1ccc(F)cc1F (stereo partly drawn) [Compound 132, (2S)-methyl 2-(1,3-bis(2,4-difluorophenyl)-4-(furan-3-yl)-5-methyl-4,5-dihydro-1H-pyrazole-5-carboxamido)propanoate]	> 2 µM	> 2 µM	> 2 µM
COCCNC(=O)C1(C)C(c2ccsc2)C(c2ccc(F)cc2)=NN1c1ccc(F)cc1F (stereo not drawn) [Compound 86, 1-(2,4-difluorophenyl)-3-(4-fluorophenyl)-N-(2-methoxyethyl)-5-methyl-4-(thiophen-3-yl)-4,5-dihydro-1H-pyrazole-5-carboxamide]	< 0.25 µM	< 0.25 µM	< 0.25 µM
CC(C)(CO)CCCNC(=O)C1(C)C(c2ccco2)C(c2ccc(F)cc2F)=NN1c1ccc(F)cc1F (stereo not drawn) [Compound 115, 1,3-bis(2,4-difluorophenyl)-4-(furan-2-yl)-N-(5-hydroxy-4,4-dimethylpentyl)-5-methyl-4,5-dihydro-1H-pyrazole-5-carboxamide]	0.5 to 1 µM	0.5 to 1 µM	0.25 to 0.5 µM
CCCCC1C(c2ccc(F)cc2)=NN(c2ccc(Cl)cc2)C1(C)C(=O)NCCCC(C)(C)CO (stereo not drawn) [Compound 12, 4-butyl-1-(4-chlorophenyl)-3-(4-fluorophenyl)-N-(5-hydroxy-4,4-dimethylpentyl)-5-methyl-4,5-dihydro-1H-pyrazole-5-carboxamide]	> 2 µM	1 to 2 µM	1 to 2 µM
CCCCC1C(c2ccc(F)cc2)=NN(c2cccc(F)c2)C1(C)C(=O)NCCCCC(C)(C)O (stereo not drawn) [Compound 7, 4-butyl-1-(3-fluorophenyl)-3-(4-fluorophenyl)-N-(5-hydroxy-5-methylhexyl)-5-methyl-4,5-dihydro-1H-pyrazole-5-carboxamide]	> 2 µM	1 to 2 µM	0.5 to 1 µM
CC(C)(CO)CCCNC(=O)C1(C)C(c2ccc(F)cc2F)=NN(c2ccc(F)cc2F)C1c1ccc(Cl)o1 (stereo not drawn) [Compound 136, 5-(5-chlorofuran-2-yl)-1,3-bis(2,4-difluorophenyl)-N-(5-hydroxy-4,4-dimethylpentyl)-4-methyl-4,5-dihydro-1H-pyrazole-4-carboxamide]	> 2 µM	> 2 µM	1 to 2 µM
CCCCC1C(c2ccc(F)cc2)=NN(c2ccccc2)C1(C)C(=O)NCc1ccc(Cl)c(Cl)c1 (stereo not drawn) [Compound 40, 4-butyl-N-(3,4-dichlorobenzyl)-3-(4-fluorophenyl)-5-methyl-1-phenyl-4,5-dihydro-1H-pyrazole-5-carboxamide]	> 2 µM	> 2 µM	> 2 µM
COCCNC(=O)C1(C)C(c2ccc(Cl)o2)C(c2ccc(F)cc2F)=NN1c1ccc(F)cc1F (stereo not drawn) [Compound 120, 4-(5-chlorofuran-2-yl)-1,3-bis(2,4-difluorophenyl)-N-(2-methoxyethyl)-5-methyl-4,5-dihydro-1H-pyrazole-5-carboxamide]	< 0.25 µM	< 0.25 µM	< 0.25 µM
CCCCC1C(c2ccc(F)cc2)=NN(c2ccccc2)C1(C)C(=O)NCc1cc(Cl)cc(Cl)c1 (stereo not drawn) [Compound 41, 4-butyl-N-(3,5-dichlorobenzyl)-3-(4-fluorophenyl)-5-methyl-1-phenyl-4,5-dihydro-1H-pyrazole-5-carboxamide]	> 2 µM	> 2 µM	1 to 2 µM
CCCCC1C(c2ccc(F)cc2)=NN(c2ccc(F)cc2)C1(C)C(=O)NCCCOC (stereo not drawn) [Compound 14, 4-butyl-1,3-bis(4-fluorophenyl)-N-(3-methoxypropyl)-5-methyl-4,5-dihydro-1H-pyrazole-5-carboxamide]	> 2 µM	1 to 2 µM	1 to 2 µM
CCCCC1C(c2ccc(F)cc2)=NN(c2ccc(F)c(OC)c2)C1(C)C(=O)NCCCOC (stereo not drawn) [Compound 19, 4-butyl-1-(4-fluoro-3-methoxyphenyl)-3-(4-fluorophenyl)-N-(3-methoxypropyl)-5-methyl-4,5-dihydro-1H-pyrazole-5-carboxamide]	> 2 µM	> 2 µM	> 2 µM
CCCCC1C(c2ccc(F)cc2F)=NN(c2ccc(F)cc2F)C1(C)C(=O)NCCOC (stereo not drawn) [Compound 90, 4-butyl-1,3-bis(2,4-difluorophenyl)-N-(2-methoxyethyl)-5-methyl-4,5-dihydro-1H-pyrazole-5-carboxamide]	0.5 to 1 µM	0.5 to 1 µM	< 0.25 µM
CCCCC1C(c2ccc(F)cc2)=NN(c2ccc(F)cc2F)C1(C)C(=O)N(C)CCCOC (stereo not drawn) [Compound 26, 4-butyl-1-(2,4-difluorophenyl)-3-(4-fluorophenyl)-N-(3-methoxypropyl)-N,5-dimethyl-4,5-dihydro-1H-pyrazole-5-carboxamide]	> 2 µM	> 2 µM	> 2 µM
CCCCC1C(c2ccc(F)cc2)=NN(c2ccccc2)C1(C)C(=O)NCc1ccc(N(C)C)cc1 (stereo not drawn) [Compound 48, 4-butyl-N-(4-(dimethylamino)benzyl)-3-(4-fluorophenyl)-5-methyl-1-phenyl-4,5-dihydro-1H-pyrazole-5-carboxamide]	> 2 µM	> 2 µM	> 2 µM
COCCNC(=O)C1(C)C(c2ccco2)C(c2ccc(F)cc2F)=NN1c1ccc(F)cc1F (stereo not drawn) [Compound 116, 1,3-bis(2,4-difluorophenyl)-4-(furan-2-yl)-N-(2-methoxyethyl)-5-methyl-4,5-dihydro-1H-pyrazole-5-carboxamide]	0.25 to 0.5 µM	< 0.25 µM	< 0.25 µM
CCCCC1C(c2ccc(F)cc2)=NN(c2ccc(F)cc2F)C1(C)C(=O)NCCOC (stereo not drawn) [Compound 6, 4-butyl-1-(2,4-difluorophenyl)-3-(4-fluorophenyl)-N-(2-methoxyethyl)-5-methyl-4,5-dihydro-1H-pyrazole-5-carboxamide]	0.5 to 1 µM	0.5 to 1 µM	0.5 to 1 µM
CCCCC1C(c2ccc(F)cc2)=NN(c2ccc(C)cc2)C1(C)C(=O)NCCCC(C)(C)CO (stereo not drawn) [Compound 15, 4-butyl-3-(4-fluorophenyl)-N-(5-hydroxy-4,4-dimethylpentyl)-5-methyl-1-p-tolyl-4,5-dihydro-1H-pyrazole-5-carboxamide]	1 to 2 µM	0.25 to 0.5 µM	0.25 to 0.5 µM
CCCCC1C(c2ccc(F)cc2)=NN(c2ccccc2)C1(C)C(=O)NCCCCO (stereo not drawn) [Compound 35, 4-butyl-3-(4-fluorophenyl)-N-(4-hydroxybutyl)-5-methyl-1-phenyl-4,5-dihydro-1H-pyrazole-5-carboxamide]	> 2 µM	1 to 2 µM	1 to 2 µM
COCCNC(=O)C1(C)C(c2ccsc2)C(c2ccc(F)cc2F)=NN1c1ccc(F)cc1F (stereo not drawn) [Compound 118, 1,3-bis(2,4-difluorophenyl)-N-(2-methoxyethyl)-5-methyl-4-(thiophen-3-yl)-4,5-dihydro-1H-pyrazole-5-carboxamide]	< 0.25 µM	< 0.25 µM	< 0.25 µM
